Test results: the NIST ThermoML archive (doi:10.1021/je8001267)

Assay: wn = mass fraction of the nth substance listed
Details: Liquid

Cl.N [ammonium chloride (NH4Cl)] + N
mass density [kg/m3]
Details	303.15 K	313.15 K	323.15 K	333.15 K	343.15 K	353.15 K	363.15 K	373.15 K
10000 kPa, w1 = 0.1133	668.2	655.5	642.7	628.8	613.4	597.6	581.2	568.8
10000 kPa, w1 = 0.2224	729.3	716	707.1	694.9	682.5	669.2	654.5	644.4
10000 kPa, w1 = 0.3134	787.8	778.1	767.7	756.3	745.7	735.4	724.1	713.8
10000 kPa, w1 = 0.4285	833	825.9	817.4	809.5	801.9	793.4	784.2	776.9
10000 kPa, w1 = 0.5068	873.3	867.9	860	853.2	846	838	830.5	823.8
15000 kPa, w1 = 0.1133	673.3	660.5	648.4	634.7	620.3	605.7	588.8	577.2
15000 kPa, w1 = 0.2224	733.1	720.5	711.9	699.8	688.1	675.5	661.6	651.7
15000 kPa, w1 = 0.3134	791.5	783.6	772.6	761.1	751.6	741.5	731.7	721.3
15000 kPa, w1 = 0.4285	836.1	828.4	820.9	812.4	805.2	796.6	789.2	781.3
15000 kPa, w1 = 0.5068	877.7	871.7	864.7	857.9	850.6	844	837	830.3
20000 kPa, w1 = 0.1133	677.8	665.3	654.2	640.8	627.1	612.9	596.4	585.5
20000 kPa, w1 = 0.2224	736.6	725.1	715.8	704.3	692.5	680.2	667.3	657.3
20000 kPa, w1 = 0.3134	795.8	786.8	776.3	765.1	755	746.5	736.8	726.2
20000 kPa, w1 = 0.4285	838.2	831	823.4	814.4	807.6	799.5	792	784.1
20000 kPa, w1 = 0.5068	880.4	874.4	867.9	860.5	854.2	847.5	840.5	834
25000 kPa, w1 = 0.1133	682.2	670.1	658.7	646.7	633.1	619.7	603.4	593
25000 kPa, w1 = 0.2224	740.1	729.5	719.7	708.7	696.9	684.7	672.2	662.3
25000 kPa, w1 = 0.3134	798.5	789.7	779.4	768.2	758.3	750.3	741.5	730.7
25000 kPa, w1 = 0.4285	840.8	833.5	825.9	817.9	810	801.9	794.3	786.5
25000 kPa, w1 = 0.5068	883.2	876.6	870.6	863.1	857.4	850.1	843.5	837
30000 kPa, w1 = 0.1133	686.7	674.6	663.4	652.3	638.6	626.1	610.6	600.3
30000 kPa, w1 = 0.2224	743.8	734.2	723.4	712.9	701.2	689.2	677.3	667.2
30000 kPa, w1 = 0.3134	801.6	792.5	782.4	770.8	761.1	754	745.7	734.6
30000 kPa, w1 = 0.4285	842.9	835.6	827.4	820.4	812	804.2	796.4	788.7
30000 kPa, w1 = 0.5068	885.4	878.8	872.8	865.3	859.7	852.7	846	839.6
